Experimental data as given in ChEMBL document CHEMBL5154925, “Design and Optimization of Thienopyrimidine Derivatives as Potent and Selective PI3Kδ Inhibitors for the Treatment of B-Cell Malignancies” (J Med Chem, 2022).
Converted amounts (≈) assume the structure as drawn. The source made the active and inactive calls. The rule behind the calls is not given here.

Tests used:
[1] = Microsomal stability in mouse liver microsomes assessed as intrinsic clearance; assay type: ADME, Microsome; details: read-out: CLH
[2] = molecular target: T1, Phosphatidylinositol 4,5-bisphosphate 3-kinase catalytic subunit beta isoform (Homo sapiens, UniProt P42338); test: Inhibition of PI3Kbeta (unknown origin) using PIP2 as substrate measured after 1 hr in presence of ATP by ADP-glo luminescence assay
T1 sequence (P42338 whole entry, canonical isoform): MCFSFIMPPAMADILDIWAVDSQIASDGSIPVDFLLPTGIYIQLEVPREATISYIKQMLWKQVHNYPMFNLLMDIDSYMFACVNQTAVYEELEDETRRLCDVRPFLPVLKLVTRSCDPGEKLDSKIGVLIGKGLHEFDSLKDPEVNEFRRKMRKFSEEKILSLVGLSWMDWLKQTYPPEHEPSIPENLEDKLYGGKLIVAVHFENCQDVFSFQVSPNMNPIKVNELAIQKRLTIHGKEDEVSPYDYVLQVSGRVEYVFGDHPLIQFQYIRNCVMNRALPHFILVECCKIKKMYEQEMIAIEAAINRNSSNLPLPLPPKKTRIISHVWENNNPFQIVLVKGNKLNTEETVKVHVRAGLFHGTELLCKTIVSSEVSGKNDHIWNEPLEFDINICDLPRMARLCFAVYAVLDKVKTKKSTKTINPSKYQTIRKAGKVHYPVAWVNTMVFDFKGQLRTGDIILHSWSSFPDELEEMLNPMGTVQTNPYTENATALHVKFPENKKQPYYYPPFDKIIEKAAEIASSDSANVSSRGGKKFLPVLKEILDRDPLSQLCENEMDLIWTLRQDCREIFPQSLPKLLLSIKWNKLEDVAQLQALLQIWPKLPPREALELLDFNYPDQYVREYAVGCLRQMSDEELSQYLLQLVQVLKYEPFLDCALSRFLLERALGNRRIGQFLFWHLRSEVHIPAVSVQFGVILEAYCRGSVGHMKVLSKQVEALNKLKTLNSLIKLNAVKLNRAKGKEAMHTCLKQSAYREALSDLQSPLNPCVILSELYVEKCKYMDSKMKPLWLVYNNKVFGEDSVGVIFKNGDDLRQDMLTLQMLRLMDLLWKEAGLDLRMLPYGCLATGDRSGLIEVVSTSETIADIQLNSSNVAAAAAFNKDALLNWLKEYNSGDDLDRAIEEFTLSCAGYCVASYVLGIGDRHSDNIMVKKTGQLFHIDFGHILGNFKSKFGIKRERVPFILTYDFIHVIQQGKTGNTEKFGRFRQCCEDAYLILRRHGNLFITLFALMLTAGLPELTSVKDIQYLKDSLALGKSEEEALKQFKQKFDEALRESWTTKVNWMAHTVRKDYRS

[3] = molecular target: Serine/threonine-protein kinase mTOR (Homo sapiens, UniProt P42345); test: Inhibition of mTOR (unknown origin)
[4] = molecular target: T1, Phosphatidylinositol 4,5-bisphosphate 3-kinase catalytic subunit beta isoform; test: Inhibition of PI3Kbeta in LPA stimulated human PC-3 cells incubated for 10 mins by AlphaLISA assay; assay type: cell-based
[5] = molecular target: Phosphatidylinositol 4,5-bisphosphate 3-kinase catalytic subunit gamma isoform (Mus musculus, UniProt Q9JHG7); test: Inhibition of PI3Kgamma in C5a stimulated mouse RAW264.7 cells incubated for 10 mins by AlphaLisa assay; assay type: cell-based
Sequence of Phosphatidylinositol 4,5-bisphosphate 3-kinase catalytic subunit gamma isoform (Q9JHG7 whole entry, the tested form may be a part, canonical isoform): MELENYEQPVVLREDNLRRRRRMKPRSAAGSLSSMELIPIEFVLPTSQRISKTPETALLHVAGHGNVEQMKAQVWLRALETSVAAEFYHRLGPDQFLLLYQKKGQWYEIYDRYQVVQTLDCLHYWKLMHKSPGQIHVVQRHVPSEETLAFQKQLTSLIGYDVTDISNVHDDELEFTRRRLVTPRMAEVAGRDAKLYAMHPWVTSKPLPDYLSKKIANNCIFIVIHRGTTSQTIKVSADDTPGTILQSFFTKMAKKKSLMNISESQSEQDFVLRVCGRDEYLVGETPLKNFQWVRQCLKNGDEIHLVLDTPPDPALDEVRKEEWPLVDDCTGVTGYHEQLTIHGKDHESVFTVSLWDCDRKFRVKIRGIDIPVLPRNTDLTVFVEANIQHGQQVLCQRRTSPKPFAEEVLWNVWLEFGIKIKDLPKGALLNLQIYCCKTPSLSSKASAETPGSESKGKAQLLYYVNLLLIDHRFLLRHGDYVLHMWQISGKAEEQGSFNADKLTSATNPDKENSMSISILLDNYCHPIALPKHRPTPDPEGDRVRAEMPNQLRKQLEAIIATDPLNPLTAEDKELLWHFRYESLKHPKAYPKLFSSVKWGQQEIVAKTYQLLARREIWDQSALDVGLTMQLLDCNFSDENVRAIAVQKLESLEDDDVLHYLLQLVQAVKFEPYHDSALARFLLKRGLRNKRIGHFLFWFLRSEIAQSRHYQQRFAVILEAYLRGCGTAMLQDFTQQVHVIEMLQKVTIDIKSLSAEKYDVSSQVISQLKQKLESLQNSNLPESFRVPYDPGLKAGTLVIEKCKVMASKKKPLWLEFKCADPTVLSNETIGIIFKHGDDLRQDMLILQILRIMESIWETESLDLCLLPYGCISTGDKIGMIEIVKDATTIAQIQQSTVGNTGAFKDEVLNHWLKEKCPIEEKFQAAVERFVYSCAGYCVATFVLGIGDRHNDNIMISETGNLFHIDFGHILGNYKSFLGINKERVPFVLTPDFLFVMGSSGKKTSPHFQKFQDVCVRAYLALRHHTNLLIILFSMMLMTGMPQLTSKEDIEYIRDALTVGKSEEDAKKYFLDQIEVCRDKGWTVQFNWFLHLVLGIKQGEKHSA

[6] = molecular target: Ribosomal protein S6 kinase alpha-3 (Homo sapiens) (UniProt P51812); test: Inhibition of wild type […] human RSK2 (M1 to D394 residues) expressed in mammalian expression system assessed as residual activity at 10 uM relative to control
Sequence of Ribosomal protein S6 kinase alpha-3 (Homo sapiens) (P51812 whole entry, the tested form may be a part): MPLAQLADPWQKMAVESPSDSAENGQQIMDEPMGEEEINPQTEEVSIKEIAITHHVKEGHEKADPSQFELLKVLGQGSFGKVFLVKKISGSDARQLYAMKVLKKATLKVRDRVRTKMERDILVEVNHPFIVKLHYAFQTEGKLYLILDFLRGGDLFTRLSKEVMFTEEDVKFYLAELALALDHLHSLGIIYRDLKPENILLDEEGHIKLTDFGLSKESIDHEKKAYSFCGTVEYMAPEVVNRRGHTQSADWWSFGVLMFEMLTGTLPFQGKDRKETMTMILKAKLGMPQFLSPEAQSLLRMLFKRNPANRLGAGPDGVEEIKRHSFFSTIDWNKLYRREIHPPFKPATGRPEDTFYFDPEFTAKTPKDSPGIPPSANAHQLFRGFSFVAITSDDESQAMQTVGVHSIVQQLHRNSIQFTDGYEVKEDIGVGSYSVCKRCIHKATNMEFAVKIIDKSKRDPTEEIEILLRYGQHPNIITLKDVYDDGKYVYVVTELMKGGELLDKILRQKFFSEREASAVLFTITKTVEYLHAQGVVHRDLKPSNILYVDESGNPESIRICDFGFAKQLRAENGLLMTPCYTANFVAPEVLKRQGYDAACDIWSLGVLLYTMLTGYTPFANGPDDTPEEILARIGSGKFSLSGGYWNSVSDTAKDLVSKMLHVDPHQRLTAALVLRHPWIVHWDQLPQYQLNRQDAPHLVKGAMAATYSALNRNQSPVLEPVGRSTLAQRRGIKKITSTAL

[7] = Solubility of the compound in PBS; assay type: physicochemical
[8] = Plasma protein binding in mouse; assay type: ADME, cell-free; details: read-out: PPB (converted)
[9] = Solubility of the compound in FaSSIF; assay type: physicochemical
Pfeiffer [10] = test: Antiproliferative activity against human Pfeiffer cells assessed as cell growth inhibition incubated for 96 hrs by cell titer glo assay; assay type: functional, cell-based
JeKo-1 = test: Antiproliferative activity against human JeKo-1 cells assessed as cell growth inhibition incubated for 96 hrs by cell titer glo assay; assay type: functional, cell-based; details: JeKo-1, 96 h
Z-138 = test: Antiproliferative activity against human Z138 cells assessed as cell growth inhibition incubated for 96 hrs by cell titer glo assay; assay type: functional, cell-based; details: Z-138, 96 h
Rec1 = test: Antiproliferative activity against human REC1 cells assessed as cell growth inhibition incubated for 96 hrs by cell titer glo assay; assay type: functional, cell-based; details: Rec1, 96 h
Pfeiffer [11] = test: Induction of cell cycle arrest in human Pfeiffer cells assessed as accumulation at G0/G1 phase at 2 to 50 uM after 24 hrs by propidium iodide and RNAase staining based flow cytometric analysis; assay type: functional; details: dose 2-50 µM
SU-DHL-6 [12] = test: Induction of cell cycle arrest in human SU-DHL-6 cells assessed as accumulation at G0/G1 phase at 2 to 50 uM after 24 hrs by propidium iodide and RNAase staining based flow cytometric analysis; assay type: functional; details: dose 2-50 µM
Pfeiffer [13] = test: Induction of apoptosis in human Pfeiffer cells assessed as late apoptotic cells at 2 uM incubated for 48 hrs by annexin V-FITC staining based flow cytometry (reference value: 7.87 %); assay type: functional
Pfeiffer [14] = test: Induction of apoptosis in human Pfeiffer cells assessed as necrotic cells at 2 uM incubated for 48 hrs by annexin V-FITC staining based flow cytometry (reference value: 6.62 %); assay type: functional
Pfeiffer [15] = test: Induction of apoptosis in human Pfeiffer cells assessed as viable […] cells at 10 uM incubated for 48 hrs by annexin V-FITC staining based flow cytometry (reference value: 81.14 %); assay type: functional
Pfeiffer [16] = test: Induction of apoptosis in human Pfeiffer cells assessed as early apoptotic cells at 10 uM incubated for 48 hrs by annexin V-FITC staining based flow cytometry (reference value: 4.16 %); assay type: functional
Pfeiffer [17] = test: Induction of apoptosis in human Pfeiffer cells assessed as late apoptotic cells at 10 uM incubated for 48 hrs by annexin V-FITC staining based flow cytometry (reference value: 7.87 %); assay type: functional
Pfeiffer [18] = test: Induction of apoptosis in human Pfeiffer cells assessed as early apoptotic cells at 50 uM incubated for 48 hrs by annexin V-FITC staining based flow cytometry (reference value: 4.16 %); assay type: functional
Pfeiffer [19] = test: Induction of apoptosis in human Pfeiffer cells assessed as necrotic cells at 50 uM incubated for 48 hrs by annexin V-FITC staining based flow cytometry (reference value: 6.62 %); assay type: functional
Pfeiffer [20] = test: Inhibition of P13K signaling pathway in human Pfeiffer cells assessed as reduction in AKT phosphorylation at S473 residue incubated for 4 hrs by Western blot analysis; assay type: cell-based; details: dose 2-50 µM, DDE = dose-dependent effect
Pfeiffer [21] = test: Inhibition of P13K signaling pathway in human Pfeiffer cells assessed as reduction in […] incubated for 4 hrs by Western blot analysis; assay type: cell-based; details: dose 2-50 µM, DDE = dose-dependent effect
SU-DHL-6 [22] = test: Inhibition of P13K signaling pathway in human SU-DHL-6 cells assessed as reduction in AKT phosphorylation at S473 residue incubated for 4 hrs by Western blot analysis; assay type: cell-based; details: dose 2-50 µM, DDE = dose-dependent effect
SU-DHL-6 [23] = test: Inhibition of P13K signaling pathway in human SU-DHL-6 cells assessed as reduction in […] incubated for 4 hrs by Western blot analysis; assay type: cell-based; details: dose 2-50 µM, DDE = dose-dependent effect
Pfeiffer [24] = test: Antitumor activity against human Pfeiffer cells xenografted in nude mouse assessed as tumor growth inhibition at 75 mg/kg, po BID for 21 days and measured twice weekly; assay type: functional; details: 504 h, time 21 day, read-out: TGI
[25] = Toxicity in nude mouse xenografted with human Pfeiffer cells assessed as effect on body weight at 75 mg/kg, po BID for 21 days and measured twice weekly; assay type: organism-based; details: in vivo, 504 h, time 21 day
Mus musculus = test: In vivo inhibition of PI3K signalling in human Pfeiffer cells xenografted in nude mouse assessed as reduction in Akt phosphorylation at Ser473 at 75 mg/kg, po by Western blotting analysis; assay type: functional, organism-based
[26] = Tmax in ICR mouse at 3 mg/kg, iv measured upto 24 hrs by LC-MS/MS analysis; assay type: ADME, organism-based; details: in vivo
[27] = Tmax in ICR mouse at 30 mg/kg, po measured upto 24 hrs by LC-MS/MS analysis; assay type: ADME, organism-based; details: in vivo
[28] = Cmax in ICR mouse at 3 mg/kg, iv measured upto 24 hrs by LC-MS/MS analysis; assay type: ADME, organism-based; design: time < 24 hrs, dose 3 mg/kg, route iv; details: in vivo
[29] = AUC (0 to t) in ICR mouse at 3 mg/kg, iv measured upto 24 hrs by LC-MS/MS analysis; assay type: ADME, organism-based; design: time < 24 hrs, dose 3 mg/kg, route iv; details: in vivo
[30] = AUC (0 to t) in ICR mouse at 30 mg/kg, po measured upto 24 hrs by LC-MS/MS analysis; assay type: ADME, organism-based; design: time < 24 hrs, dose 30 mg/kg, route po; details: in vivo
[31] = AUC (0 to infinity) in ICR mouse at 3 mg/kg, iv measured upto 24 hrs by LC-MS/MS analysis; assay type: ADME, organism-based; design: time < 24 hrs, dose 3 mg/kg, route iv; details: in vivo
[32] = AUC (0 to infinity) in ICR mouse at 30 mg/kg, po measured upto 24 hrs by LC-MS/MS analysis; assay type: ADME, organism-based; design: dose 30 mg/kg, time < 24 hrs, route po; details: in vivo
[33] = Half life in ICR mouse at 3 mg/kg, iv measured upto 24 hrs by LC-MS/MS analysis; assay type: ADME, organism-based; details: in vivo
[34] = Half life in ICR mouse at 30 mg/kg, po measured upto 24 hrs by LC-MS/MS analysis; assay type: ADME, organism-based; details: in vivo
[35] = Apparent volume of distribution in ICR mouse at 3 mg/kg, iv measured upto 24 hrs by LC-MS/MS analysis; assay type: ADME, organism-based; details: in vivo, read-out: Vz
[36] = Clearance in ICR mouse at 3 mg/kg, iv measured upto 24 hrs by LC-MS/MS analysis; assay type: ADME, organism-based; details: in vivo
SU-DHL-6 [37] = test: Induction of apoptosis in human SU-DHL-6 cells assessed as apoptotic rate incubated for 48 hrs by annexin V-FITC staining based flow cytometry; assay type: functional, cell-based; details: dose 2-50 µM, DDE = dose-dependent effect

For `CCC(=O)N1CC[C@H](Nc2ncnc3sc(-c4cnc(OC)c(OC)c4)cc23)C1`, the CLint scaled [1] was 60.3 mL/min/kg, the IC50 [2] was 0.972 µM and the IC50 [3] was > 10 µM. The IC50 [4] was 5.12 µM, the IC50 [5] was 8.06 µM and the Activity [6] was 23%. It also gave a solubility [7] of 44.5 µM (≈ 18.4 µg/mL), a fraction unbound [8] of 0.029 and a solubility [9] of 102 µM (≈ 42.1 µg/mL). For the same compound, the IC50 (Pfeiffer [10]) was 0.58 µM, the IC50 (JeKo-1) was 14.7 µM and the IC50 (Z-138) was 7.05 µM. The IC50 (Rec1) was 1.21 µM, the Activity (Pfeiffer [11]) was “Active” and the Activity (SU-DHL-6 [12]) was “Active”. For the same compound, the Activity (Pfeiffer [13]) was 12.63%, the Activity (Pfeiffer [14]) was 5.01% and the Activity (Pfeiffer [15]) was 65.34%. The Activity (Pfeiffer [16]) was 6.98%, the Activity (Pfeiffer [17]) was 22.9% and the Activity (Pfeiffer [18]) was 15.74%. For the same compound, the Activity (Pfeiffer [19]) was 7.18%, the inhibition (Pfeiffer [20]) was “Dde” and the inhibition (Pfeiffer [21]) was “Dde”. For the same compound, the inhibition (SU-DHL-6 [22]) was “Dde”, the inhibition (SU-DHL-6 [23]) was “Dde” and the inhibition in vivo at 75 mg/kg (Pfeiffer [24]) was 65.5%. The Activity [25] was 10%, the inhibition (Mus musculus) was “Active” and the Tmax [26] was 4.8 min. For the same compound, the Tmax [27] was 1.5 h, the Cmax [28] was 3190 ng/mL and the AUC(0-t) at 24 h [29] was 1370 ng·h/mL. The AUC(0-t) at 24 h [30] was 1030 ng·h/mL, the AUC(0-inf) [31] was 1370 ng·h/mL and the AUC(0-inf) [32] was 1030 ng·h/mL. For the same compound, the half-life [33] was 1.73 h, the half-life [34] was 0.89 h and the Vd [35] was 5.49 L/kg. For the same compound, the clearance [36] was 36.5 mL/min/kg and the Activity (SU-DHL-6 [37]) was “Dde”.
